Data published in paper PMC7662397, “p-Cymene Complexes of Ruthenium(II) as Antitumor Agents” (Molecules, 2020).
Where two headings read alike, the source gives them in different places.

How the values were obtained:
[1] = system: HeLa cells; assay: MTT cytotoxicity assay, HeLa cells, 48 h; type: cell-based, human; details: read-out: IC50 (μM) HeLa
Text: (§1) Human cervical cancer cells (HeLa), human breast cancer cells (MCF-7) and green monkey kidney epithelial cells (BGM) were acquired from the American Type Culture Collection (ATCC, USA). The reason to choose human cervical cancer cells (HeLa) and human breast cancer cells (MCF-7) was to use a cell culture model that closely represented the human in vivo situation. The green monkey kidney epithelial cells (BGM) were chosen to compare cancer cells with healthy cells. Cell lines were maintained in Dulbecco’s Modified Eagle Medium (DMEM) with a low glucose content (1 g/L) supplemented with 10% (v/v) fetal bovine serum (FBS), 1 mM glutamax, 1% antibiotics (penicillin–streptomycin) and 1 mM pyruvate. In all cases, the cells were maintained at 37 °C in 5% CO2 atmosphere of 95% humidity. Cells were sub-cultured and the medium was changed once a week. In all cases, 0.25% trypsin, 0.25 mM ethylenediaminetetraacetic acid (EDTA) was used.
(§2) A total of 5 × 10^3 cells/well (200 µL of the culture medium described above) were seeded into a 96-well plate and incubated at 37 °C in a 5% CO2 and 95% humidity atmosphere for 24 h. […] Finally, a 200 µL aliquot of each of these last sixteen solutions was added to the wells. Cells were incubated at 37 °C for 48 h. The medium was then removed from the wells and 200 μL of MTT (3-(4,5-dimethylthiazol-2-yl)-2,5-diphenyltetrazolium bromide, 1 mg/mL final concentration) was added. After 4 h incubation in identical conditions, MTT was removed and 100 µL of dimethyl sulfoxide (DMSO) added. The absorbance at 560 nm was measured and recorded in a Fluostar Omega spectrophotometer.
(§3) Absorbances at each compound concentration were translated into inhibition percentages, I%, according to Equation (1):(1) I% = [1− AT/AC]×100 where AT and AC are the absorbance of treated and control cells, respectively.
(§4) The fitting was performed using GraphPad Prism v.8 software. All compounds were tested in three independent sets with triplicate points. The in vitro studies were performed in SACE (Support Service for Experimental Sciences, University of Murcia, Murcia, Spain) with biosecurity Level 2.

[2] = system: MCF-7 cells; assay: MTT cytotoxicity assay, MCF-7 cells, 48 h; type: cell-based, human; details: read-out: IC50 (μM) MCF-7
Text: as §1, §2, §3, §4

[3] = system: BGM cells; assay: MTT cytotoxicity assay, BGM cells, 48 h; type: cell-based, green monkey; details: read-out: IC50 (μM) BGM
Text: as §1, §2, §3, §4

[4] = system: HeLa cells; set-up: method as in PMID 29880783; details: cisplatin value from the literature; cited from earlier work
[5] = system: MCF-7 cells; details: cisplatin value from the literature; cited from earlier work
[6] = system: BGM cells; details: cisplatin value from the literature; cited from earlier work
[7] = human cervical cancer cells, 48 h exposure, MTT
[8] = human breast cancer cells, 48 h exposure, MTT
[9] = healthy green monkey kidney epithelial cells, 48 h exposure, MTT
[10] = MCF7, human breast cancer cells, 48 h exposure, MTT
[11] = Chlorocebus sabaeus, BGM, healthy green monkey kidney epithelial cells, 48 h exposure, MTT

SMILES	IC50 [1, 7] [µM]	IC50 [2, 8] [µM]	IC50 [3, 9] [µM]	IC50 [2, 10] [µM]	IC50 [3, 11] [µM]	further results
N#Cc1ccncc1 [4-cyanopyridine]						IC50 ([1]; Homo sapiens, 48 h): > 250 µM; IC50 ([2]; Homo sapiens, MCF7, 48 h): > 250 µM; IC50 ([3]; Chlorocebus sabaeus, BGM, 48 h): > 250 µM
Cc1ccc(C(C)C)cc1.Nc1ccc(O)cc1.[Cl][Ru][Cl] [Complex III]	171 ± 2.1	75.8 ± 2.3	59.6 ± 1.9			
Cc1ccc(C(C)C)cc1.Nc1ccccc1O.[Cl][Ru][Cl] [Complex II]	82.9 ± 0.67	28.7 ± 1.8	> 250			
Cc1ccc(C(C)C)cc1.[Cl][Ru][Cl].c1ccnnc1 [Complex IV]	> 250	> 250	> 250			
Cc1ccc(C(C)C)cc1.N#Cc1ccncc1.[Cl][Ru][Cl] [Complex I]	> 250	> 250	> 250			
Cc1ccc(C(C)C)cc1.F[P-](F)(F)(F)(F)F.Nc1ccccc1O.Nc1ccccc1O.[Cl][Ru+] [Complex VI]	57.6 ± 4	24.9 ± 4.3	95 ± 1.7			
Nc1ccccc1O [L = 2-aminophenol, 2-aminophenol]	> 250			131.3 ± 0.15	> 250	
Nc1ccc(O)cc1 [L = 4-aminophenol, 4-aminophenol]	> 250			> 250	> 250	
c1ccnnc1 [Pyridazine]	> 250			> 250	> 250	
N.N.[Cl][Pt][Cl] [cisplatin]						IC50 [4]: 67.6 ± 2 µM; IC50 [5]: 7.15 ± 0.1 µM; IC50 [6]: 5.45 ± 0.2 µM
